Data: PubChem BioAssay (NCI)
Several values for one entry are separate records, joined by “and”; a condition that tells them apart may be missing. Equal entries are not always repeated.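 A five-concentration, 48-hour dose response in 96-well plates underlies each endpoint, interpolated linearly between surrounding concentrations. GI50 is the concentration that inhibits growth by half. TGI denotes the concentration required for complete inhibition of growth.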

Tests used:
Test in all cases: NCI tumour cell line growth inhibition, 48 h
786-0 renal = tested on: 786-0 renal
MDA-MB-435 = tested on: MDA-MB-435
DU-145 prostate = tested on: DU-145 prostate
MDA-MB-231 breast = tested on: MDA-MB-231 breast
BT-549 breast = tested on: BT-549 breast
MDA-N = tested on: MDA-N
SNB-78 CNS = tested on: SNB-78 CNS
TK-10 renal = tested on: TK-10 renal
PC-3 prostate = tested on: PC-3 prostate
RXF 393 renal = tested on: RXF 393 renal
P388 leukemia = tested on: P388 leukemia
HCC-2998 colon = tested on: HCC-2998 colon
M14 melanoma = tested on: M14 melanoma
NCI/ADR-RES ovarian = tested on: NCI/ADR-RES ovarian
ACHN renal = tested on: ACHN renal
MOLT-4 leukemia = tested on: MOLT-4 leukemia
SF-295 CNS = tested on: SF-295 CNS
EKVX NSCLC = tested on: EKVX NSCLC
NCI-H23 lung = tested on: NCI-H23 lung
LOX IMVI melanoma = tested on: LOX IMVI melanoma
T-47D breast = tested on: T-47D breast
SR leukemia = tested on: SR leukemia
SK-OV-3 ovarian = tested on: SK-OV-3 ovarian
KM12 colon = tested on: KM12 colon
COLO 205 colon = tested on: COLO 205 colon
K-562 leukemia = tested on: K-562 leukemia
UO-31 renal = tested on: UO-31 renal
SNB-75 CNS = tested on: SNB-75 CNS
OVCAR-4 ovarian = tested on: OVCAR-4 ovarian
DLD-1 colon = tested on: DLD-1 colon
HL-60(TB) leukemia = tested on: HL-60(TB) leukemia
KM20L2 colon = tested on: KM20L2 colon
SN12C renal = tested on: SN12C renal
MCF7 breast = tested on: MCF7 breast
CCRF-CEM leukemia = tested on: CCRF-CEM leukemia
U251 CNS = tested on: U251 CNS
SF-268 CNS = tested on: SF-268 CNS
XF 498 CNS = tested on: XF 498 CNS
HS 578T breast = tested on: HS 578T breast
IGROV1 ovarian = tested on: IGROV1 ovarian
UACC-62 melanoma = tested on: UACC-62 melanoma
HT29 colon = tested on: HT29 colon
OVCAR-8 ovarian = tested on: OVCAR-8 ovarian
RXF-631 renal = tested on: RXF-631 renal
SW-620 colon = tested on: SW-620 colon
UACC-257 melanoma = tested on: UACC-257 melanoma
SK-MEL-2 melanoma = tested on: SK-MEL-2 melanoma
SF-539 CNS = tested on: SF-539 CNS
NCI-H522 lung = tested on: NCI-H522 lung
SK-MEL-28 melanoma = tested on: SK-MEL-28 melanoma
RPMI-8226 leukemia = tested on: RPMI-8226 leukemia
HOP-92 NSCLC = tested on: HOP-92 NSCLC
NCI-H226 lung = tested on: NCI-H226 lung
M19-MEL melanoma = tested on: M19-MEL melanoma
NCI-H460 lung = tested on: NCI-H460 lung
A498 renal = tested on: A498 renal
LXFL 529 NSCLC = tested on: LXFL 529 NSCLC
OVCAR-3 ovarian = tested on: OVCAR-3 ovarian
MALME-3M melanoma = tested on: MALME-3M melanoma
SK-MEL-5 melanoma = tested on: SK-MEL-5 melanoma
HCT-15 colon = tested on: HCT-15 colon
A549 NSCLC = tested on: A549 NSCLC
DMS 114 small cell lung = tested on: DMS 114 small cell lung
HCT-116 colon = tested on: HCT-116 colon
CAKI-1 renal = tested on: CAKI-1 renal
DMS 273 small cell lung = tested on: DMS 273 small cell lung
HOP-62 NSCLC = tested on: HOP-62 NSCLC
HOP-18 NSCLC = tested on: HOP-18 NSCLC
SNB-19 CNS = tested on: SNB-19 CNS
OVCAR-5 ovarian = tested on: OVCAR-5 ovarian

`CC[C@@H](C)[C@@H]1NC(=O)C(NC(=O)C(CC(C)C)N(C)C(=O)C2CCCN2C(=O)C(C)O)C(C)OC(=O)C(Cc2ccc(OC)cc2)N(C)C(=O)C2CCCN2C(=O)C(CC(C)C)NC(=O)C(C)C(=O)C(C(C)C)OC(=O)C[C@H]1O` (stereo partly specified) was tested, and the TGI (786-0 renal) was 0.00827 µM and 0.0533 µM, the TGI (MDA-MB-435) was 0.00316 µM and 0.00845 µM and the TGI (DU-145 prostate) was 0.0504 µM. For the same compound, the TGI (MDA-MB-231 breast) was 0.0199 µM and 0.053 µM, the TGI (BT-549 breast) was 0.0967 µM and the GI50 (MDA-N) was 0.0021 µM. The GI50 (SNB-78 CNS) was 1.65 pM, the TGI (TK-10 renal) was 0.0495 µM and 0.0741 µM and the GI50 (PC-3 prostate) was 0.00251 µM. For the same compound, the TGI (PC-3 prostate) was 0.0425 µM and 0.0487 µM, the TGI (RXF 393 renal) was 0.01 µM and 0.0647 µM and the TGI (P388 leukemia) was 0.03 µM and < 0.0103 µM. For the same compound, the TGI (HCC-2998 colon) was 0.00511 µM and 0.0314 µM, the TGI (M14 melanoma) was 0.00648 µM and 0.039 µM and the TGI (NCI/ADR-RES ovarian) was 1.88 µM and 0.359 µM. For the same compound, the TGI (ACHN renal) was 0.0204 µM and 0.053 µM, the TGI (MOLT-4 leukemia) was 0.0547 µM and 0.0255 µM and the TGI (SF-295 CNS) was 0.0115 µM and 0.0194 µM and 0.029 µM.
For `COc1ccc(OC)c(/C=C/[N+](=O)[O-])c1`, the GI50 (EKVX NSCLC) was 2.42 µM and 6.47 µM, the TGI (EKVX NSCLC) was 6.18 µM and 16.7 µM and the TGI (786-0 renal) was 4.09 µM and 3.21 µM. For the same compound, the TGI (NCI-H23 lung) was 13.6 µM and 8.12 µM, the GI50 (LOX IMVI melanoma) was 1.09 µM and the TGI (LOX IMVI melanoma) was 12.6 µM and 3.78 µM. For the same compound, the TGI (T-47D breast) was 46.8 µM, the TGI (MDA-MB-435) was 7.68 µM and the GI50 (SR leukemia) was 0.467 µM and 0.865 µM. For the same compound, the TGI (SR leukemia) was 1.85 µM and 3.92 µM, the GI50 (DU-145 prostate) was 2.57 µM and the TGI (DU-145 prostate) was 8.37 µM and 10.5 µM. The TGI (MDA-MB-231 breast) was 5.32 µM, the TGI (SK-OV-3 ovarian) was 26.2 µM and 10.3 µM and the GI50 (KM12 colon) was 2.6 µM and 13.3 µM. For the same compound, the TGI (KM12 colon) was 7.27 µM and 27.4 µM, the TGI (COLO 205 colon) was 4.06 µM and 6.76 µM and the GI50 (K-562 leukemia) was 2.08 µM. The TGI (K-562 leukemia) was 6.96 µM and 14.8 µM, the TGI (UO-31 renal) was 3.39 µM and 5.62 µM and the GI50 (SNB-75 CNS) was 5.3 µM. For the same compound, the TGI (SNB-75 CNS) was 12.9 µM and 11.8 µM, the TGI (OVCAR-4 ovarian) was 8.89 µM and 8.72 µM and the TGI (DLD-1 colon) was 8.65 µM. For the same compound, the GI50 (HL-60(TB) leukemia) was 1.66 µM and 0.651 µM, the TGI (HL-60(TB) leukemia) was 4.5 µM and 2.79 µM and the TGI (KM20L2 colon) was 9.34 µM. The TGI (SN12C renal) was 7.19 µM and 7.69 µM, the TGI (MCF7 breast) was 8.64 µM and the GI50 (CCRF-CEM leukemia) was 1.18 µM. For the same compound, the TGI (CCRF-CEM leukemia) was 14.6 µM and 5.38 µM, the TGI (BT-549 breast) was 11.9 µM and the GI50 (U251 CNS) was 2.27 µM. The TGI (U251 CNS) was 8.86 µM and 7.37 µM, the TGI (SF-268 CNS) was 10 µM and 12.3 µM and the TGI (MDA-N) was 25.3 µM. The TGI (XF 498 CNS) was 7.02 µM, the TGI (HS 578T breast) was 14.6 µM and the GI50 (IGROV1 ovarian) was 2 µM and 3.79 µM. The TGI (IGROV1 ovarian) was 6.97 µM and 8.79 µM, the GI50 (UACC-62 melanoma) was 1.98 µM and 4.37 µM and the TGI (UACC-62 melanoma) was 5.34 µM and 12.1 µM. The TGI (HT29 colon) was 6.33 µM and 7.41 µM, the TGI (SNB-78 CNS) was 58.8 µM and the GI50 (OVCAR-8 ovarian) was 3.31 µM. For the same compound, the TGI (OVCAR-8 ovarian) was 17.3 µM and 15.2 µM, the GI50 (TK-10 renal) was 1.86 µM and 5.04 µM and the TGI (TK-10 renal) was 4.58 µM and 10.5 µM. The GI50 (PC-3 prostate) was 2.53 µM and 12.4 µM, the TGI (PC-3 prostate) was 7.37 µM and 27.9 µM and the TGI (RXF-631 renal) was 10.3 µM. The TGI (SW-620 colon) was 16.9 µM and 5.39 µM, the GI50 (UACC-257 melanoma) was 3.19 µM and the TGI (UACC-257 melanoma) was 11.7 µM and 8.28 µM. The TGI (SK-MEL-2 melanoma) was 5.48 µM and 9.88 µM, the TGI (SF-539 CNS) was 13.8 µM and 10.4 µM and the GI50 (RXF 393 renal) was 1.8 µM. The TGI (RXF 393 renal) was 3.59 µM and 3.54 µM, the TGI (NCI-H522 lung) was 2.96 µM and 4.78 µM and the TGI (SK-MEL-28 melanoma) was 4.96 µM and 9.45 µM. The GI50 (RPMI-8226 leukemia) was 1.74 µM, the TGI (RPMI-8226 leukemia) was 4.42 µM and 4.74 µM and the GI50 (HOP-92 NSCLC) was 2.04 µM. For the same compound, the TGI (HOP-92 NSCLC) was 7.23 µM and 10.4 µM, the GI50 (NCI-H226 lung) was 1.93 µM and 4.06 µM and the TGI (NCI-H226 lung) was 4.41 µM and 10.2 µM. The TGI (M19-MEL melanoma) was 5.96 µM, the GI50 (NCI-H460 lung) was 2.91 µM and the TGI (NCI-H460 lung) was 9.32 µM and 13.9 µM. The GI50 (HCC-2998 colon) was 4.24 µM and 4.38 µM, the TGI (HCC-2998 colon) was 10.4 µM and 7.54 µM and the TGI (M14 melanoma) was 4.44 µM and 6.86 µM. The GI50 (A498 renal) was 3.26 µM, the TGI (A498 renal) was 8.42 µM and 8.29 µM and the TGI (LXFL 529 NSCLC) was 4.83 µM. For the same compound, the TGI (OVCAR-3 ovarian) was 4.9 µM and 3.31 µM, the GI50 (MALME-3M melanoma) was 2.19 µM and 5.66 µM and the TGI (MALME-3M melanoma) was 7.26 µM and 11 µM. The GI50 (SK-MEL-5 melanoma) was 2.06 µM, the TGI (SK-MEL-5 melanoma) was 4.29 µM and 6.58 µM and the TGI (HCT-15 colon) was 17.1 µM and 6.73 µM. The GI50 (A549 NSCLC) was 2.85 µM, the TGI (A549 NSCLC) was 15.4 µM and 13.6 µM and the TGI (NCI/ADR-RES ovarian) was 21 µM. The TGI (DMS 114 small cell lung) was 11.9 µM, the TGI (ACHN renal) was 4.49 µM and 3.28 µM and the TGI (HCT-116 colon) was 12.7 µM and 6.06 µM. The TGI (CAKI-1 renal) was 7.74 µM and 7.64 µM, the GI50 (MOLT-4 leukemia) was 1.1 µM and 2.52 µM and the TGI (MOLT-4 leukemia) was 5.31 µM and 9.59 µM. For the same compound, the TGI (DMS 273 small cell lung) was 6.99 µM, the TGI (HOP-62 NSCLC) was 8.27 µM and 9.56 µM and the TGI (HOP-18 NSCLC) was 3.85 µM. For the same compound, the TGI (SNB-19 CNS) was 15.2 µM and 9.89 µM, the GI50 (SF-295 CNS) was 3.09 µM and the TGI (SF-295 CNS) was 9.46 µM and 11.4 µM. For the same compound, the GI50 (OVCAR-5 ovarian) was 2.11 µM and 4.32 µM and the TGI (OVCAR-5 ovarian) was 4.45 µM and 9.01 µM.
